Data on 30 molecules can be found in patent US20050119304A1, “Urea derivatives” (priority 2001, published 2005).

One data set concerns the target T1, human VR1 (Homo sapiens, UniProt Q8NER1).
T1 construct: The cloned hVR1 cDNA was constructed with pcDNA3 vector and transfected into a CHOluc9aeq cell line; expressed in transfected cells
Briefly: Capsaicin-induced Ca2+ influx in the human VR1-transfected CHO cell line (Assay 1). The format is cell-based. The conditions noted are these: read-out: hVR1 class. From the text: [Measurement of Capsaicin-Induced Ca^2+ Influx in the Human VR1-Transfected CHO Cell Line] (Assay 1)
(1) Establishment of the Human VR1-CHOluc9aeq Cell Line
Human vanilloid receptor (hVR1) cDNA was cloned from libraries of axotomized dorsal root ganglia (WO2000/29577). The cloned hVR1 cDNA was constructed with pcDNA3 vector and transfected into a CHOluc9aeq cell line. The cell line contains aequorin and CRE-luciferase reporter genes as read-out signals. The transfectants were cloned by limiting dilution in selection medium (DMEM/F12. medium (Gibco BRL) supplemented with 10% FCS, 1.4 mM Sodium pyruvate, 20 mM HEPES, 0.15% Sodium bicarbonate, 100 U/ml penicillin, 100 μg/ml strept mycin, 2 mM glutamine, non-essential amino acids and 2 mg/ml G418). Ca^2+ influx was examined in the capsaicin-stimulated clones. A high responder clone was selected and used for further experiments in the project. The human VR1-CHOluc9aeq cells were maintained in the selection medium and passaged every 3-4 days at 1-2.5×10^5 cells/flask ([…]).
(2) Measurement of Ca^2+ Influx Using FDSS-3000
Human VR1-CHOluc9aeq cells were suspended in a culture medium which is the same as the selection medium except for G418 and seeded at a density of 1,000 cells per well into 384-well plates (black walled clear-base/Nalge Nunc International). Following the culture for 48 hrs the medium was changed to 2 μM Fluo-3 AM (Molecular Probes) and 0.02% Puronic F-127 in assay buffer (Hank's balanced salt solution (HBSS), 17 mM HEPES (pH7.4), 1 mM Probenecid, 0.1% BSA) and the cells were incubated for 60 min at 25° C. After washing twice with assay buffer the cells were incubated with a test compound or vehicle for 20 min at 25° C. Mobilization of cytoplasmic Ca^2+ was measured by FDSS-3000 (λex=488 nm, λem=540 nm/Hamamatsu Photonics) for 60 sec after the stimulation with 10 nM capsaicin. Integral R was calculated and compared with controls.
The data corresponds to the compounds as yielded by solid phase synthesis and thus to levels of purity of about 40 to 90%.

SMILES strings stand for the structures. Some results are limits rather than exact numbers.

T1 sequence (Q8NER1 whole entry): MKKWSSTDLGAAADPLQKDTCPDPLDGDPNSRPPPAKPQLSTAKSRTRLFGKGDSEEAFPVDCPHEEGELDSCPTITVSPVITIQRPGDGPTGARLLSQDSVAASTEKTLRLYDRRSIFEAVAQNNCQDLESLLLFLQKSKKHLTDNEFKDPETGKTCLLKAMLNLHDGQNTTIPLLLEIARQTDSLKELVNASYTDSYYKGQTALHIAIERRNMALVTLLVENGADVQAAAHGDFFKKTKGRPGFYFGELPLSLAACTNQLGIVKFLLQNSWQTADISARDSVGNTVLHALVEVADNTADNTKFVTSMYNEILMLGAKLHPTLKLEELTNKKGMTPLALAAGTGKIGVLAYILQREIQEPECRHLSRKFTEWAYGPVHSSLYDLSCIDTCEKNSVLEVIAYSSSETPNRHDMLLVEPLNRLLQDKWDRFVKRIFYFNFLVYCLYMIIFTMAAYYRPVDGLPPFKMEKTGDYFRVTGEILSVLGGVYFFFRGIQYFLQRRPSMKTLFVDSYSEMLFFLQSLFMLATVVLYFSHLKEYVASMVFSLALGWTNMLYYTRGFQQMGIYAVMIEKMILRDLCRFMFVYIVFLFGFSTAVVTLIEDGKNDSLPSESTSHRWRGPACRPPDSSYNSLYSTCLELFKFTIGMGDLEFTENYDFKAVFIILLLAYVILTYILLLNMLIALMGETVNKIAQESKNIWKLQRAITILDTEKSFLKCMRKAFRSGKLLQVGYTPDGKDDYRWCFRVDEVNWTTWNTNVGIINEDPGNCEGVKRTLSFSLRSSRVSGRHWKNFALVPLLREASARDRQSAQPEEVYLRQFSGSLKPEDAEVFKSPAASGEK

`COc1cccc(NC(=O)Nc2ccc3[nH]ccc3c2)c1` [Example 73]: the melting point (in general, the temperature, or range, at which the solid turns liquid) was 227 to 229 °C. Further, the IC50 on human VR1 was in the range of 500 to 1000 nM.

Consider `O=C(Nc1ccc(Br)cc1)Nc1ccc2[nH]ccc2c1` [Example 74], for which the melting point was greater than 250 °C. Besides, the IC50 at human VR1 was in the range of 500 to 1000 nM.

Regarding `O=C(Nc1ccc(Oc2ccccc2)cc1)Nc1ccc2[nH]c(C(F)(F)F)nc2c1` [Example 75], the melting point is 239 to 241 °C. On human VR1, the IC50 was 500 to 1000 nM.

For the molecule `Cc1cccc(NC(=O)Nc2ccc3[nH]c(C(F)(F)F)nc3c2)c1` [Example 76], the melting point was in the range of 245 to 247 °C. The IC50 at human VR1 was 500 to 1000 nM.

As for `CSc1cccc(NC(=O)Nc2ccc3[nH]c(C(F)(F)F)nc3c2)c1` [Example 77], the melting point was in the range of 226 to 228 °C. At human VR1, the IC50 lay within 500 to 1000 nM.

`O=C(Nc1ccc(F)cc1)Nc1ccc2[nH]c(C(F)(F)F)nc2c1` [Example 78]: the melting point lay in the range of 242 to 243 °C. For the same molecule, on human VR1, the IC50 lay in the range of 500 to 1000 nM.

`COc1cccc(NC(=O)Nc2ccc3[nH]c(C(F)(F)F)nc3c2)c1` [Example 79] came in with a melting point of 233 to 237 °C. In addition, at human VR1, the IC50 was in the range of 500 to 1000 nM.

Molecule `O=C(Nc1ccc(Br)cc1)Nc1ccc2[nH]c(C(F)(F)F)nc2c1` [Example 80] returned a melting point greater than 250 °C. Moreover, the IC50 at human VR1 was 500 to 1000 nM.

For the molecule `O=C(Nc1ccc(Cl)c(Cl)c1)Nc1ccc2[nH]c(C(F)(F)F)nc2c1` [Example 81], the melting point is 240 to 242 °C. In addition, the IC50 on human VR1 lay within 500 to 1000 nM.

Molecule `CSc1ccc(NC(=O)Nc2cccc3[nH]ccc23)cc1` [Example 82] registered a melting point of 228 to 231 °C. Also, the IC50 on human VR1 lay in the range of 500 to 1000 nM.

Regarding `CC(=O)c1cccc(NC(=O)Nc2cccc3[nH]ccc23)c1` [Example 83], the melting point was 205 to 207 °C. The IC50 at human VR1 fell in the range of 500 to 1000 nM.

Take `COc1ccccc1NC(=O)Nc1cccc2[nH]ccc12` [Example 84]: the melting point lay in the range of 208 to 209 °C. Also, the IC50 on human VR1 was in the range of 500 to 1000 nM.

Molecule `CCOC(=O)c1cccc(NC(=O)Nc2cccc3[nH]ccc23)c1` [Example 85] had a melting point of 194 to 196 °C. For the same molecule, the IC50 on human VR1 is less than 100 nM.

As to `O=C(Nc1ccccc1-c1ccccc1)Nc1cccc2[nH]ccc12` [Example 86], the melting point is 104 to 106 °C. The IC50 on human VR1 lay in the range of 500 to 1000 nM.

With `O=C(Nc1cccc(Cl)c1)Nc1cccc2[nH]ccc12` [Example 87], the melting point lay in the range of 238 to 239 °C. Besides, on human VR1, the IC50 was 100 to 500 nM.

`O=C(Nc1ccc2ccccc2c1)Nc1cccc2[nH]ccc12` [Example 88] yielded a melting point of 242 to 243 °C. For the same molecule, on human VR1, the IC50 lay in the range of 100 to 500 nM.

The molecule `O=C(NCc1ccc(Br)cc1)Nc1cccc2[nH]ccc12` [Example 89] displayed a melting point of 199 to 202 °C. Also, the IC50 on human VR1 was less than 100 nM.

In turn, `O=C(Nc1cccc(F)c1)Nc1cccc2[nH]ccc12` [Example 90] showed a melting point of 225 to 226 °C. For the same molecule, the IC50 at human VR1 was 500 to 1000 nM.

In turn, `O=C(Nc1ccc(Cl)cc1)Nc1cccc2[nH]ccc12` [Example 91] came in with a melting point of 247 to 248 °C. Besides, on human VR1, the IC50 lay within 100 to 500 nM.

As to `O=C(Nc1ccc(C(F)(F)F)cc1)Nc1cccc2[nH]ccc12` [Example 92], the melting point lay within 242 to 243 °C. The IC50 on human VR1 fell in the range of 100 to 500 nM.

Molecule `O=C(Nc1cc(Cl)cc(Cl)c1)Nc1cccc2[nH]ccc12` [Example 93] had a melting point of 262 to 263 °C. At human VR1, the IC50 fell in the range of 100 to 500 nM.

For `O=C(Nc1ccccc1F)Nc1cccc2[nH]ccc12` [Example 94], the melting point lay within 244 to 246 °C. Moreover, the IC50 at human VR1 was in the range of 500 to 1000 nM.

In turn, `O=C(Nc1ccccc1Cl)Nc1cccc2[nH]ccc12` [Example 95] yielded a melting point of 244 to 246 °C. The IC50 on human VR1 lay in the range of 100 to 500 nM.

Turning to `O=C(Nc1ccc(Cl)c([N+](=O)[O-])c1)Nc1cccc2[nH]ccc12` [Example 96], the melting point lay within 233 to 235 °C. Moreover, the IC50 on human VR1 fell in the range of 100 to 500 nM.

Molecule `O=C(Nc1cc([N+](=O)[O-])ccc1F)Nc1cccc2[nH]ccc12` [Example 97] gave a melting point of 261 to 263 °C. Moreover, the IC50 at human VR1 was in the range of 500 to 1000 nM.

In turn, `O=C(Nc1ccc(F)c([N+](=O)[O-])c1)Nc1cccc2[nH]ccc12` [Example 98] came in with a melting point of 248 to 251 °C. In addition, the IC50 on human VR1 lay within 100 to 500 nM.

For `O=C(NCc1cccc(F)c1)Nc1cccc2[nH]ccc12` [Example 99], the melting point lay in the range of 190 to 192 °C. Moreover, the IC50 on human VR1 was in the range of 500 to 1000 nM.

As for `Cc1ccc(CNC(=O)Nc2cccc3[nH]ccc23)cc1` [Example 100], the melting point came out at 223 °C. Moreover, the IC50 on human VR1 fell in the range of 100 to 500 nM.

In turn, `O=C(NCc1ccccc1Cl)Nc1cccc2[nH]ccc12` [Example 101] registered a melting point of 237 to 238 °C. The IC50 on human VR1 fell in the range of 100 to 500 nM.

In turn, `COc1ccc(CNC(=O)Nc2cccc3[nH]ccc23)cc1` [Example 102] displayed a melting point of 201 to 202 °C. Besides, at human VR1, the IC50 lay in the range of 500 to 1000 nM.
